What was measured:
[1] = system: cellules tumorales HT 29; test: Test de prolifération (réduction MTT), HT 29; assay type: cell-based; conditions: HT 29, MTT test, 72 h incubation
Experimental: (§1) Des cellules tumorales L 1210, A 549 et HT 29 en croissance exponentielle, à une densité de 5.10³/ml dans un milieu RPMI, sont incubées dans des plaques de microtitration contenant 96 puits, pendant 72 heures (37°C, 5 % CO₂, 95 % d'humidité relative) avec diffé-rentes concentrations de chacun des glycosides conformes à l'invention.
(§2) Les témoins consistent en cellules tumorales dans un milieu de culture frais.
(§3) Quatre puits sont préparés pour chaque concentration de glycoside et pour le témoin.
(§4) Après 65 heures, 50 µl de MTT (2,5 mg/ml dans du PBS) sont ajoutés.
(§5) Le MTT sera réduit, en présence de cellules vivantes, en un colorant formazan rouge insoluble.
(§6) Après 7 à 24 heures d'incubation supplémentaire, le surnageant est enlevé.
(§7) Le colorant formazan est solubilisé par l'addition de 100 µl de DMSO dans chaque puits, suivie d'une agitation douce. L'extinction est mesurée pour chaque puits, à 492 nm (photomètre Multiscan 340 cc, Fa. Flow).
(§8) Les résultats sont exprimés sous forme de relation de l'extinction après incubation avec les glycosides par rapport à l'extinction obtenue avec les té-moins. Le coefficient de variation est inférieur à 15 %. Les résultats sont représentés dans le tableau I, ci-après : […]

[2] = system: cellules tumorales A 549; test: Test de prolifération (réduction MTT), A 549; assay type: cell-based; conditions: A 549, MTT test, 72 h incubation
Experimental: as §1, §2, §3, §4, §5, §6, §7, §8

[3] = system: cellules tumorales L 1210; test: Test de prolifération (réduction MTT), L1210; assay type: cell-based; conditions: 72 h incubation
Experimental: as §1, §2, §3, §4, §5, §6, §7, §8

[4] = system: leucémie L1210; conditions: mouse, leucémie L1210, compared with daunorubicine 2a / doxorubicine 2b; cited from earlier work
[5] = system: sarcome S 180; conditions: mouse, sarcome S 180, compared with daunorubicine 2a / doxorubicine 2b; cited from earlier work
[6] = system: leucémie P 388; conditions: mouse, leucémie P 388, compared with daunorubicine 2a / doxorubicine 2b; cited from earlier work
[7] = animal models, compared with 2a and 2b; cited from earlier work

Compound | IC₅₀ [1] | IC₅₀ [2] | IC₅₀ [3] | activité in vivo [4] | activité in vivo [5] | activité in vivo [6] | cardiotoxicité [7]
COc1cccc2c1C(=O)c1c(O)c3c(c(O)c1C2=O)C[C@@](O)(C(C)=O)C[C@@H]3O[C@H]1C[C@H](CNC(=O)C(F)(F)F)C[C@H](C)O1 [15a, O-(N-TRIFLUOROACETYL AMINOMETHYL-3′ TETRADESOXY-2′, 3′, 4′,6′-α-L-LYXO-HEXOPYRANOSYL)-7 DAUNOMYCINONE] | 0,67 µg/ml | 0,43 µg/ml | 0,25 µg/ml | – | – | – | –
CC[C@@]1(O)C[C@H](O[C@H]2C[C@H](CNC(=O)C(F)(F)F)C[C@H](C)O2)c2c(O)c3c(c(O)c2[C@H]1O)C(=O)c1cccc(O)c1C3=O [16a, O-(N-TRIFLUOROACETYL AMINOMETHYL-3′ TETRADESOXY-2′,3′, 4′,6′-α-L-LYXO-HEXOPYRANOSYL)-7 β-RHODOMYCINONE] | 0,48 µg/ml | 0,14 µg/ml | 0,14 µg/ml | – | – | – | –
COc1cccc2c1C(=O)c1c(O)c3c(c(O)c1C2=O)C[C@@](O)(C(C)=O)C[C@@H]3O[C@H]1C[C@H](N)C[C@H](C)O1 [compound 3] | – | – | – | aussi actifs | aussi actifs | aussi actifs | moins cardiotoxiques
COc1cccc2c1C(=O)c1c(O)c3c(c(O)c1C2=O)C[C@@](O)(C(=O)CO)C[C@@H]3O[C@H]1C[C@H](N)C[C@H](C)O1 [compound 4] | – | – | – | aussi actifs | aussi actifs | aussi actifs | moins cardiotoxiques

Source: patent EP0363255A1, “Analogues of 4-desoxydaunosamine, process for their preparation, anthracycline derivatives of these analogues and use of these anthracyclines as medicaments” (LABORATOIRES HOECHST S.A., priority 1988, dated 1990)
